Columns and labels:
BDC-10.1 T cell = settings: for stimulation of BDC-10.1 (IL-2): M12.C3.g7 APCs, peptides at the concentrations used in the digests, average of three experiments
Source text: (§1) For APCs, we used the IA^g7-expressing M12.C3 B cell lymphoma (M12.C3.g7; [Carrasco-Marin et al., 1996]). Four T cell hybridomas were used in various stimulation assays. BDC-2.5 and BDC-10.1 were provided by Dr. Kathryn Haskins (University of Colorado Medical School, Aurora, CO). G7W120 was produced in this laboratory ([Jin et al., 2015]). The insulin B:9-23 reactive AS91 T cell hybridoma ([Levisetti et al., 2007]) was provided by Dr. Emil Unanue (Washington University, St. Louis, MO). T cell hybridomas (10^5 cells) were mixed with either 10^5 paraformaldehyde-fixed APCs or 10^5 unfixed APCs and cultured overnight with various concentrations of synthetic peptide or volumes of a pH-adjusted cathepsin digestion mixture in a final volume of 250 µl. Secreted IL-2 was assayed with a functional assay where the growth and survival of an HT-2 IL-2–dependent cell line was quantified using the dye MTT ([White et al., 2000]) and reported as units per milliliter based on comparison to an IL-2 standard.

Cat-L [1] = settings: estimated by comparison with control peptide LQTLALWSRMDQL; C-peptide plus WE14 with Cat-L
Source text: as §1

livCat-L and recCat-L = settings: MS/MS
Cat-L [2] = system: Cat-L
[3] = system: BDC-2.5, BDC-10.1, and G7W-120 T cells
ChgA-specific T cells = settings: words; ref Stadinski et al., 2010a; cited from earlier work

Substance: C-peptide
- stimulation of BDC-10.1 (IL-2) (BDC-10.1 T cell): neither C-peptide nor WE14 alone had any activity
- C-peptide converted to a stimulatory peptide (Cat-L [1]): 2.5–5%
- cleavage of mouse C-peptide (livCat-L and recCat-L): The cleavage after TLAL was found in both digests

Substance: LQTLALWSRMDQL
- stimulation of BDC-10.1 (IL-2) (BDC-10.1 T cell): highly stimulatory

Substance: RKLLW-NH2
- inhibition of BDC-10.1 response to 0.17 µM LQTLALWSRMDQL by carried-over inhibitor (BDC-10.1 T cell; control for nonspecific inhibition of the stimulation assay): not inhibitory
- inhibition of generation of the active peptide, words (Cat-L [2]; increasing inhibitor concentrations (44-350 µM)): inhibited by RKLLW-NH2 in a dose-dependent manner
- inhibition of generation of the active peptide by Cat-L (Cat-L [2]; inhibitor at same concentration as C-peptide substrate, livCat-L or recCat-L, preincubated 30 min on ice): ~50%

Substance: WSRMDQLAKELTAE [WE14]
- stimulation of BDC-10.1 (IL-2) (BDC-10.1 T cell): neither C-peptide nor WE14 alone had any activity
- stimulation of three T cells (IL-2) [3]: inactive at the concentrations tested here
- agonism for BDC-2.5 and other ChgA-specific T cells (ChgA-specific T cells): weak agonist

Reference: publication PMC7590512, “Lysosomal cathepsin creates chimeric epitopes for diabetogenic CD4 T cells via transpeptidation” (The Journal of Experimental Medicine, 2020)
